# Measurements from PMC12679356 (RSC Advances, 2025).
# How the values were obtained:
# [1] = system: MCF-7 breast cancer cells; settings: read-out: IC50 MCF-7; literature hybrids 5-7 and 5-FU; cited from earlier work
# MDA-MB-231 = assay: MTT cytotoxicity assay on MDA-MB-231; type: cell-based
# Caco-2 = assay: MTT cytotoxicity assay on Caco-2; type: cell-based; settings: Homo sapiens, Caco-2, read-out: IC50 Caco-2
# HEK-293 = assay: MTT cytotoxicity assay on non-cancerous HEK-293; type: cell-based; settings: Homo sapiens, HEK293, read-out: IC50 HEK-293
Structure (SMILES),IC50 [1] [µM],"IC50 (MDA-MB-231; Homo sapiens, MDA-MB-231, read-out: IC50 MDA-MB-231) [µg/mL]","SI HEK/MDA (MDA-MB-231; selectivity index, HEK-293 vs MDA-MB-231)",IC50 (Caco-2) [µg/mL],IC50 (HEK-293) [µg/mL]
"O=c1[nH]cc(F)c(=O)[nH]1 [Compound 5-FU, 5-FU]",12.4,–,–,–,–
Cc1ccc(CNC(=O)Cn2cc(CSc3nc4ccccc4[nH]3)nn2)cc1 [Compound 11],–,68.3 ± 3.1,0.93,63.8 ± 1.09,63.4 ± 2.5
